Here are results for seven compounds from publication PMC7660689, “Catechol-Type Flavonoids from the Branches of Elaeagnus glabra f. oxyphylla Exert Antioxidant Activity and an Inhibitory Effect on Amyloid-β Aggregation” (Molecules, 2020).

Data set [1] in a line: DPPH radical scavenging assay. The following applies: for DPPH radical scavenging activity: concentrations from 1.5625 to 100 µM; for IC50: isolated compounds, 1.5625-100 µM. The method, then:
ABTS and DPPH radical scavenging assays were performed with reference to the modified method described in previously published reports to examine the antioxidant activities. In the ABTS assay, 7 mM ABTS aqueous solution and 2.45 mM potassium persulfate were reacted for 12–16 h in the dark at room temperature to prepare the ABTS^•+ solution. Subsequently, the reactant was diluted 25-fold to adjust its absorbance at 734 nm to 0.7 by using a spectrophotometer (Benchmark Plus, Bio-Rad, Hercules, CA). The sample solution (100 μL) and ABTS^•+ solution (100 μL) were mixed and incubated for 5 min at room temperature in the dark.
To determine the DPPH radical scavenging activity, the sample solution (100 μL) and 0.15 mM DPPH solution (100 μL) were mixed and incubated for 3 h at room temperature in the dark. The absorbance was measured at 517 nm. Ascorbic acid was used as a positive control for antioxidative activity. The radical scavenging activity (%) was calculated using the following equation:(2) Radical scavenging activity %=1−Absorbance of sample/Absorbance of control × 100
Background: The DPPH test is a chemical assay of radical scavenging.

Data set [2] concerns the target T1, Aβ1–42 peptides (Homo sapiens, UniProt P05067).
T1 construct: purchased AnaSpec
Nature of the data set: Thioflavin T (ThT) Aβ aggregation assay. The data set is classed as biochemical. The following applies: for Inhibition of Aβ aggregation compared with positive control morin: compounds at 100 μM, morin 100 μM; for IC50: isolated compounds, 6.25-100 µM, ThT fluorescence, read-out: Inhibition of Aβ aggregation IC50. The method, then:
To measure the inhibitory effect on Aβ1–42 aggregation, the SensoLyte® Thioflavin T (ThT) β-Amyloid aggregation kit (AnaSpec, Fremont, CA, USA) was used according to the modified manufacturer’s instructions. This assay is based on the property of ThT dye that increases fluorescence when bound to the aggregates of Aβ1–42 peptides. The detailed protocol is described in a previous report. Morin (100 μM) was used as a positive control for the inhibition of Aβ aggregation. Experiments were performed in triplicate and independently repeated three times. The inhibition rate (%) of Aβ aggregation was calculated according to the following equation:(1) Inhibition of Aβ aggregation %=1−Fluorescence of Aβ−treated sample/Fluorescence of untreated sample×100

The nature of data set [3]: ABTS radical scavenging assay. The following applies: for Concentration at which ABTS radical scavenging activity reached 100% / IC50: isolated compounds; for IC50: 1.5625-100 µM; for ABTS radical scavenging activity: compounds at 100 μM. On the procedure: ABTS and DPPH radical scavenging assays were performed with reference to the modified method described in previously published reports to examine the antioxidant activities. […] Subsequently, the reactant was diluted 25-fold to adjust its absorbance at 734 nm to 0.7 by using a spectrophotometer (Benchmark Plus, Bio-Rad, Hercules, CA). […] The absorbance was measured at 517 nm. Ascorbic acid was used as a positive control for antioxidative activity.

T1 sequence (P05067 672-713 limits assumed): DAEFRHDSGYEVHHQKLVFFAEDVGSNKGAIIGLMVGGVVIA

As to `Oc1cc(O)c2c(c1)O[C@H](c1ccc(O)c(O)c1)[C@@H](O)[C@@H]2c1c(O)cc(O)c2c1O[C@H](c1ccc(O)c(O)c1)[C@@H](O)C2` [Compound 8, procyanidin B3], in data set [1], the “DPPH radical scavenging activity” value is listed as less than 52% and half-maximal inhibition (IC50) required 54.9 µM. In data set [2], the “Inhibition of Aβ aggregation compared with positive control morin” value is “comparably to morin” and the IC50 (as a rule, the concentration at which inhibition is half-maximal) turned out to be 14.6 µM. For the same compound, in data set [3], the “Concentration at which ABTS radical scavenging activity reached 100%” value was determined as 12.5 µM and the IC50 was determined as 3.21 µM.

On to `Oc1cc(O)c2c(c1)O[C@H](c1ccc(O)c(O)c1)[C@@H](O)[C@@H]2c1c(O)cc(O)c2c1O[C@H](c1ccc(O)c(O)c1)[C@H](O)C2` [Compound 9, procyanidin B4], for which, in data set [1], the “DPPH radical scavenging activity” value was less than 52% and the IC50 is greater than 100 µM. Further, in data set [2], the “Inhibition of Aβ aggregation compared with positive control morin” value was “comparably to morin” and the concentration for half-maximal inhibition (IC50) is 32.6 µM. In addition, in data set [3], the “Concentration at which ABTS radical scavenging activity reached 100%” value stood at 12.5 µM and the IC50 is 3.44 µM.

In the case of `C[C@@H]1CC[C@]2(C(=O)O)CC[C@]3(C)C(=CCC4[C@@]5(C)CC[C@H](OC(=O)/C=C/c6ccc(O)c(O)c6)C(C)(C)C5CC[C@]43C)C2[C@H]1C` (stereo partly drawn) [Compound 15, ursolic acid-3-O-trans-caffeate], the melting point (commonly the temperature, or range, at which the solid turns liquid) is greater than 300 °C. Besides, the “ABTS radical scavenging activity” value in data set [3] was less than 66%.

As to `O=C(C=Cc1ccc(O)cc1)OCC1OC(Oc2c(-c3ccc(O)c(O)c3)oc3cc(O)cc(O)c3c2=O)C(O)C(O)C1O` (stereo not drawn) [Compound 13, helichrysoside], in data set [1], the “DPPH radical scavenging activity” value was less than 52% and the concentration for half-maximal inhibition (IC50) was greater than 100 µM. Further, in data set [2], the “Inhibition of Aβ aggregation compared with positive control morin” value is recorded as “comparably to morin” and the IC50 was determined as 44.5 µM. In data set [3], the “Concentration at which ABTS radical scavenging activity reached 100%” value stood at 25 µM and the half-maximal inhibitory concentration (IC50) came out at 4.61 µM.

Consider `O=C(O)c1ccc(O)cc1` [Compound 1, 4-hydroxybenzoic acid], for which the “ABTS radical scavenging activity” value in data set [3] is less than 66%.

On to `C=C(C)[C@@H]1CC[C@]2(C(=O)O)CC[C@]3(C)C(CCC4[C@@]5(C)CC[C@H](OC(=O)/C=C/c6ccc(O)c(O)c6)C(C)(C)C5CC[C@]43C)C12` (stereo partly drawn) [Compound 14, betulinic acid-3-O-trans-caffeate], for which the melting point is 270 °C. Further, in data set [3], the “ABTS radical scavenging activity” value is listed as less than 66%.

Turning to `O=C(O)c1ccccc1O` [Compound 2, salicylic acid], the “ABTS radical scavenging activity” value in data set [3] is recorded as less than 66%.
